The text below walks through data of patent publication US20150315188A1, “COMPOUNDS AND METHODS FOR TREATMENT OF HYPERTENSION” (MEDIVATION TECHNOLOGIES, INC., priority 2012, published 2015).

Common to all, as to set-up: purchased Milipore (Millipore)
Experiment [1] concerns the target T1, Human adrenergic α2A receptor (Homo sapiens, UniProt P08913).
T1 sequence (P08913 1-465): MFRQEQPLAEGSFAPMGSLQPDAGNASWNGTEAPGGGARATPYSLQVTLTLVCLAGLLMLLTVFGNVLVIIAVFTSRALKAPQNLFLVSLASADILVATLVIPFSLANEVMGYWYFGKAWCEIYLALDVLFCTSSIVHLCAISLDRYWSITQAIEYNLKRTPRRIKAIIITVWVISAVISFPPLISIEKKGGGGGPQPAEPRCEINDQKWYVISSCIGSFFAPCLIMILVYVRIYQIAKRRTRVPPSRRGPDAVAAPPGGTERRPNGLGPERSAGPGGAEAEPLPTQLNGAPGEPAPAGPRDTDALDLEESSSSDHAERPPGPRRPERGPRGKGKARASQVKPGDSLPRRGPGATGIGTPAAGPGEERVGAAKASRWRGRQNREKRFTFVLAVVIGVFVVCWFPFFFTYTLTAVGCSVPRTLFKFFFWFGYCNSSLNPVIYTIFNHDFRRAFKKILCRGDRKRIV
Kind of experiment: Radioligand binding, adrenergic α2A (Protocol Group B). Conditions: Protocol Group B; for Percentage inhibition of ligand binding, Adrenergic α2A (0.1 μM): 0.1 μM compound; for Percentage inhibition of ligand binding, Adrenergic α2A (0.3 μM): 0.3 μM compound. In short, it runs like this:
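Membranes from recombinant cells expressing the receptor, in 50 mM Tris-HCl pH 7.4 with 5 mM MgCl2, 1 mM CaCl2, 0.2% BSA; compounds incubated with 2 nM [^3H]MK-912 for 60 min at 25° C. Nonspecific binding defined by 10 μM rauwolscine; filtration, counting; percent inhibition of specific binding, or estimated Ki.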

Experiment [2] concerns the target T2, Human adrenergic α2B receptor (Homo sapiens, UniProt P18089).
T2 sequence (P18089 1-450): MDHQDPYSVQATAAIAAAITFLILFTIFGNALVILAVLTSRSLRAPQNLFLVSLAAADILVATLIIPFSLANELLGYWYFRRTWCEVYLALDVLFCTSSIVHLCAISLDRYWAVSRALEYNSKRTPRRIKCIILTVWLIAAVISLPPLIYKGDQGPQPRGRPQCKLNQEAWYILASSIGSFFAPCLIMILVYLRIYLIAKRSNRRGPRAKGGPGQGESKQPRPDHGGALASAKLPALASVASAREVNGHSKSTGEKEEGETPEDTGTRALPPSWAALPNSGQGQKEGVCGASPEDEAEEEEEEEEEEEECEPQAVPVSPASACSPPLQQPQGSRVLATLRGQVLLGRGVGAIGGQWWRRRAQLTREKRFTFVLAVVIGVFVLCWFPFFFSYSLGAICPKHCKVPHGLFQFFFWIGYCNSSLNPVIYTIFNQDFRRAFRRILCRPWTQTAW
Kind of experiment: Radioligand binding, adrenergic α2B (Protocol Group B). The following applies: Protocol Group B; for Percentage inhibition of ligand binding, Adrenergic α2B (10 nM): 10 nM compound, 0.01 µM; for Percentage inhibition of ligand binding, Adrenergic α2B (30 nM): 30 nM compound, 0.03 µM; for Percentage inhibition of ligand binding, Adrenergic α2B (0.1 μM): 0.1 μM compound. In short, it runs like this:
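Recombinant human α2B receptor membranes incubated with compounds in 50 mM Tris-HCl pH 7.4, 5 mM MgCl2, 1 mM CaCl2, 0.2% BSA, 1% DMSO vehicle. Non-specific binding defined with 10 μM rauwolscine. Values are percent inhibition of specific binding or estimated Ki.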

The target of experiment [3] is T3, Human adrenergic α1B receptor (Homo sapiens, UniProt P35368).
T3 sequence (P35368 1-520): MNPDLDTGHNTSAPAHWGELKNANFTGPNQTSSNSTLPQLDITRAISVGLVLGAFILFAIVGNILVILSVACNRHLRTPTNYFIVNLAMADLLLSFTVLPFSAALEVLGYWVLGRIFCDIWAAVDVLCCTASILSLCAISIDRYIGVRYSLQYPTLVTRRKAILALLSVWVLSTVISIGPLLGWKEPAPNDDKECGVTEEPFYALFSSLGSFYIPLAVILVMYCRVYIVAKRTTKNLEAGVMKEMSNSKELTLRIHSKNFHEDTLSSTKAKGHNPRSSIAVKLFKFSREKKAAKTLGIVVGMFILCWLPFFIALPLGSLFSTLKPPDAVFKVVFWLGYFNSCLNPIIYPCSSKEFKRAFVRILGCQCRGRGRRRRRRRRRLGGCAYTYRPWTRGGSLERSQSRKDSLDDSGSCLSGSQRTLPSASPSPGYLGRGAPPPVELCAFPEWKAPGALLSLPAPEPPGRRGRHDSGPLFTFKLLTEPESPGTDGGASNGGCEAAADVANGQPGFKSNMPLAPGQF
The experiment is described as follows: Radioligand binding, adrenergic α1B (Protocol Group B). Conditions: Protocol Group B; for Percentage inhibition of ligand binding, Adrenergic α1B (0.1 μM): 0.1 μM compound; for Percentage inhibition of ligand binding, Adrenergic α1B (0.3 μM): 0.3 μM compound. Summed up: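 Recombinant human α1B membranes incubated with test compound and 0.3 nM [3H]prazosin, 60 min at 25 °C, in 50 mM Tris-HCl pH 7.4, 10 mM MgCl2, 1 mM EDTA; nonspecific binding with 10 μM prazosin. Filter-bound radioactivity counted; values are % inhibition of specific binding or estimated Ki.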

As for `Cc1ccc2c(c1)c1c(n2CC(C)(O)c2cccnc2)CC2CCCN2C1` (stereo not shown) [41b], in experiment [1], the “Percentage inhibition of ligand binding, Adrenergic α2A (0.1 μM)” value is −16% and the “Percentage inhibition of ligand binding, Adrenergic α2A (0.3 μM)” value is on record as −5%. In addition, in experiment [2], the “Percentage inhibition of ligand binding, Adrenergic α2B (10 nM)” value (“Percentage inhibition … (10 nM)” below) is reported as −14%; the “Percentage inhibition of ligand binding, Adrenergic α2B (30 nM)” value (shortened to “Percentage inhibition … (30 nM)”) is −14%; the “Percentage inhibition of ligand binding, Adrenergic α2B (0.1 μM)” value is −2%. In addition, in experiment [3], the “Percentage inhibition of ligand binding, Adrenergic α1B (0.1 μM)” value was −11% and the “Percentage inhibition of ligand binding, Adrenergic α1B (0.3 μM)” value is reported as −4%.

For `Cc1ccc2c(c1)c1c(n2CC(C)(O)c2cccnc2)CC2CCCN2C1` (stereo not shown) [41c], in experiment [1], the “Percentage inhibition of ligand binding, Adrenergic α2A (0.1 μM)” value is on record as −12% and the “Percentage inhibition of ligand binding, Adrenergic α2A (0.3 μM)” value was 1%. Besides, in experiment [2], the “Percentage inhibition … (10 nM)” value is on record as −8%; the “Percentage inhibition … (30 nM)” value is on record as −10%; the “Percentage inhibition of ligand binding, Adrenergic α2B (0.1 μM)” value came to 0%. Also, in experiment [3], the “Percentage inhibition of ligand binding, Adrenergic α1B (0.1 μM)” value was determined as 1% and the “Percentage inhibition of ligand binding, Adrenergic α1B (0.3 μM)” value is given as −5%.

For the compound `Cc1ccc2c(c1)c1c(n2CC(C)(O)c2cccnc2)CC2CCCN2C1` (stereo not shown) [41d], in experiment [1], the “Percentage inhibition of ligand binding, Adrenergic α2A (0.1 μM)” value is reported as −7% and the “Percentage inhibition of ligand binding, Adrenergic α2A (0.3 μM)” value worked out at 13%. For the same compound, in experiment [2], the “Percentage inhibition … (10 nM)” value is reported as 9%; the “Percentage inhibition … (30 nM)” value is 21%; the “Percentage inhibition of ligand binding, Adrenergic α2B (0.1 μM)” value stood at 48%. Besides, in experiment [3], the “Percentage inhibition of ligand binding, Adrenergic α1B (0.1 μM)” value is listed as −2% and the “Percentage inhibition of ligand binding, Adrenergic α1B (0.3 μM)” value is reported as −1%.

On to `CC(O)(Cn1c2c(c3cc(F)ccc31)C1CCCN1CC2)c1cccnc1` (stereo not shown) [51a], for which, in experiment [1], the “Percentage inhibition of ligand binding, Adrenergic α2A (0.1 μM)” value was 16% and the “Percentage inhibition of ligand binding, Adrenergic α2A (0.3 μM)” value is listed as 39%. Further, in experiment [2], the “Percentage inhibition … (10 nM)” value is listed as 79%; the “Percentage inhibition … (30 nM)” value was 93%; the “Percentage inhibition of ligand binding, Adrenergic α2B (0.1 μM)” value was 97%. Further, in experiment [3], the “Percentage inhibition of ligand binding, Adrenergic α1B (0.1 μM)” value was −6% and the “Percentage inhibition of ligand binding, Adrenergic α1B (0.3 μM)” value worked out at 19%.

As for `CC(O)(Cn1c2c(c3cc(F)ccc31)C1CCCN1CC2)c1cccnc1` (stereo not shown) [51b], in experiment [1], the “Percentage inhibition of ligand binding, Adrenergic α2A (0.1 μM)” value was 13% and the “Percentage inhibition of ligand binding, Adrenergic α2A (0.3 μM)” value was 34%. In experiment [2], the “Percentage inhibition … (10 nM)” value was 45%; the “Percentage inhibition … (30 nM)” value was determined as 69%; the “Percentage inhibition of ligand binding, Adrenergic α2B (0.1 μM)” value is given as 86%. Besides, in experiment [3], the “Percentage inhibition of ligand binding, Adrenergic α1B (0.1 μM)” value is given as −8% and the “Percentage inhibition of ligand binding, Adrenergic α1B (0.3 μM)” value stood at 4%.

For `CC(O)(Cn1c2c(c3cc(F)ccc31)C1CCCN1CC2)c1cccnc1` (stereo not shown) [57a], in experiment [1], the “Percentage inhibition of ligand binding, Adrenergic α2A (0.1 μM)” value is −12% and the “Percentage inhibition of ligand binding, Adrenergic α2A (0.3 μM)” value is listed as −11%. For the same compound, in experiment [2], the “Percentage inhibition … (10 nM)” value was −7%; the “Percentage inhibition … (30 nM)” value is 0%; the “Percentage inhibition of ligand binding, Adrenergic α2B (0.1 μM)” value was 14%. Moreover, in experiment [3], the “Percentage inhibition of ligand binding, Adrenergic α1B (0.1 μM)” value was −4% and the “Percentage inhibition of ligand binding, Adrenergic α1B (0.3 μM)” value was −4%.

Take `CC(O)(Cn1c2c(c3cc(F)ccc31)C1CCCN1CC2)c1cccnc1` (stereo not shown) [57b]: in experiment [1], the “Percentage inhibition of ligand binding, Adrenergic α2A (0.1 μM)” value is recorded as −6% and the “Percentage inhibition of ligand binding, Adrenergic α2A (0.3 μM)” value is −7%. For the same compound, in experiment [2], the “Percentage inhibition … (10 nM)” value is listed as −7%; the “Percentage inhibition … (30 nM)” value is given as −4%; the “Percentage inhibition of ligand binding, Adrenergic α2B (0.1 μM)” value is 8%. In experiment [3], the “Percentage inhibition of ligand binding, Adrenergic α1B (0.1 μM)” value is −10% and the “Percentage inhibition of ligand binding, Adrenergic α1B (0.3 μM)” value is on record as −7%.
